This is an account of results in paper PMC12716022, “Synthesis, In Silico, and Biological Evaluation of Non‐Hydroxamate Benzoic Acid–Based Derivatives as Potential Histone Deacetylase Inhibitors (HDACi)” (Chemistry & Biodiversity, 2025).

Data set [1] deals with HepG2. Kind of data set: MTT in vitro cytotoxicity assay, HepG2. It is filed as cell-based. The following applies: Homo sapiens, 72 h treatment, mean ± SD of three experiments in triplicates. As to the method:
(§1) The following human cell lines obtained from American Type Culture Collection (ATCC) were used to elucidate the antiproliferative effect of the newly synthesized compounds: HepG2 (HB‐8065; hepatocellular carcinoma), MCF‐7 (HTB‐22; breast cancer), K562 (CCL‐243; myeloid leukemia), and MCF‐10A (CRL‐10317; normal mammary cells). MCF‐7 and K562 cells were maintained in RPMI‐1640 media (Capricorn, Germany), whereas HepG2 cells were grown in high‐glucose DMEM (Capricorn, Germany). All media used were supplemented with 10% fetal bovine serum (Gibco, USA), 1% L‐glutamine (Gibco, USA), and 1% penicillin/streptomycin (Gibco, USA). MCF‐10A cells were cultured in DMEM/F12 media (Capricorn, Germany) supplemented with 5% horse serum (Gibco, USA), epidermal growth factor (EGF; Sigma, USA), insulin (Sigma, USA), hydrocortisone (Sigma, USA), and cholera toxin (Sigma, USA). Cells were maintained in humidified incubator with 5% CO2 at 37°C.
(§2) To evaluate the effects of the compounds on cell proliferation and determine their inhibitory concentration (IC50), eight different concentrations (0.03, 0.1, 0.3, 1, 3, 10, 30, and 100 µM) of each compound were tested. Cells were seeded at a density of 5 × 10^3 cells per well in a 96‐well plate and incubated for 24 h to allow cell attachment. After 72 h of treatment, the media was removed, and 0.5 µg/µL MTT (3‐[4,5‐dimethylthiazol‐2‐yl]‐2,5‐diphenyltetrazolium bromide) was added. After a 4‐h incubation period, DMSO was added for 30–45 min to dissolve the formazan crystals formed. The absorbance was measured at 570 nm using a plate reader (Biotek Synergy HT Multi‐Mode Microplate Reader, USA), and the IC50 values were calculated accordingly. The experiment was performed three times with triplicates for each concentration.

Data set [2] relates to caspase (3, 4, 8, or 9). Kind of data set: Colorimetric caspase enzymatic assay in MCF‐7 cells. It is filed as cell-based, human. As to conditions: MCF‐7, IC50, 72 h, versus control. The procedure: Caspase activity assay was performed using the colorimetric caspase assay kit from Abbkine following the manufacturer's protocol. Briefly, cells were collected, washed, and lysed in the working cell lysis buffer provided. The lysates were incubated on ice for 20 min, centrifuged at 16 000 g at 4°C for 15 min, and the supernatants were transferred to fresh tubes. Aliquots were added to a 96‐well plate, mixed with the working reaction buffer and the appropriate caspase substrate, and incubated at 37°C for 2 h. Absorbance was then measured at 405 nm using the Biotek Synergy HT Multi‐Mode Microplate Reader (USA). The experiment was run twice.

The subject of data set [3] is K562. Kind of data set: MTT in vitro cytotoxicity assay, K562. It is filed as cell-based. The following applies: Homo sapiens, 72 h treatment, mean ± SD of three experiments in triplicates. As to the method: as §1, §2
Data set [4] concerns zinc‐dependent class I and II HDAC. Kind of data set: HDAC‐Glo I/II assay in MCF‐7 cells. It is filed as cell-based, human. As to conditions: 2 h incubation, mean ± SD of two experiments in triplicates, read-out: Inhibition of HDAC enzyme activity EC50. As to the method: HDAC activity in response to the new compounds was measured using the HDAC‐Glo I/II Assay and Screening System (Promega, USA), following the manufacturer's instructions. Briefly, MCF‐7 cells were seeded in a 96‐well plate at a density of 10 × 10^3 cells per well. After 24 h, the medium was replaced with serum‐free medium containing the different compounds. […] All compounds were tested at concentrations of 0.3, 3, 30, and 100 µM in triplicates. Cells were incubated with the drugs for 2 h before adding the HDAC‐Glo I/II reagent. The plate was gently mixed and incubated for 30 min. […] The experiment was run twice.

A short description of data set [5]: MTT in vitro cytotoxicity assay, normal MCF‐10A. The following applies: MCF-10A normal mammary cells, 72 h treatment, normal human breast cells, mean ± SD. It is filed as cell-based.
In data set [6] the test system is HepG2, MCF‐7, K562. Kind of data set: MTT cytotoxicity, single IC50 per compound given in Figure 5 (SAR). The following applies: Homo sapiens; in the SAR figure; matches the mean of the HepG2, MCF‐7 and K562 IC50 of Table 1. The class given is cell-based. The procedure: as §2
Data set [7] deals with MCF‐7. Kind of data set: MTT in vitro cytotoxicity assay, MCF‐7. As to conditions: for IC50: MTT, 72 h treatment, mean ± SD of three experiments in triplicates. It is filed as cell-based, human.
Data set [8] deals with acetylated histone H3 and histone H4. Kind of data set: Immunoblotting of acetylated histones in MCF‐7 cells. The class given is cell-based, human. As to conditions: IC50 concentration, 72 h, versus untreated control. The procedure:
Immunoblotting was performed to evaluate changes in the levels of acetylated histone H3 and histone H4, the main targets of HDAC enzymes. […] Protein concentrations were measured using the Bradford protein assay (BioRad, USA).
Proteins were separated on a 12%–15% SDS–PAGE gel and transferred onto a 0.45 µm nitrocellulose membrane (Santa Cruz Biotechnology, USA). The membranes were incubated overnight at 4°C with the following primary antibodies: rabbit anti‐Histone H3 Acetyl Lys9 (1:500; Abbkine, USA), rabbit anti‐Histone H4 Acetyl Lys12 (1:500; Abbkine, USA), and mouse anti‐GAPDH (1:2000; Invitrogen, USA). Following overnight incubation, the membranes were washed three times with TBST and incubated with the appropriate HRP‐conjugated secondary antibodies (R&D Systems, USA). After a 1‐h incubation, the membranes were washed again with TBST, and protein signals were developed using Pierce ECL western blotting substrate (Thermo Scientific) and visualized using the FluorChem R system (Oxford, UK).

Data set [9] concerns MCF‐7 breast cancer cells. Kind of data set: TUNEL apoptosis detection in MCF‐7 cells. The class given is cell-based, human. The following applies: MCF‐7, IC50 concentration, 72 h, TUNEL; control 5.2%.
Data set [10] relates to caspase genes. Kind of data set: qRT‐PCR of caspase expression in MCF‐7 cells. As to conditions: MCF‐7, IC50, 72 h, versus control. The class given is cell-based, human. The procedure: RNA was extracted using Trizol reagent, followed by purification with the Direct‐zol RNA Miniprep Extraction Kit (Zymo Research, USA). cDNA synthesis was performed using Takara PrimeScript RT Master Mix (Takara Bio Inc, USA). The qPCR mix was prepared as follows: 12.5 µL master mix (KAPA Biosystems, USA), 1 µL each of forward and reverse primers, 1 µL of cDNA, and nuclease‐free water to a final reaction volume of […]. qPCR amplification was carried out using the Line Gene 9680 BioER instrument with cycling parameters detailed as follows: activation stage at 50°C for 2 min; presoak stage at 95°C for 10 min; 40 cycles of denaturation at 95°C for 15 s, followed by annealing and extension at 60°C for 1 min; and finally, melting curve stage: 95°C for 15 s, 60°C for 15 s, 95°C for 15 s. Relative expression levels were analyzed using the ΔΔCt method, with fold changes normalized to housekeeping gene (GAPDH).

Usually IC50 stands for the concentration at which inhibition is half-maximal. The term EC50 denotes the concentration at which the effect is half-maximal. Regarding `O=C(CNc1ccc(C(=O)O)cc1Cl)NN=Cc1ccc(O)cc1` [Compound A3bn, 3‐Chloro‐4‐((2‐(2‐(4‐Hydroxybenzylidene) Hydrazinyl)‐2‐Oxoethyl) Amino)Benzoic Acid], the IC50 in data set [1] is 74.3 ± 8.3 µM; in [3], 42 ± 5.3 µM; in data set [6], 51.8 µM; in [7] (Homo sapiens, MCF7, 72 h) it was 20.3 µM; in [7], 39.2 ± 2.8 µM. Moreover, the “caspase activation at the protein level” value in data set [2] is reported as “activating caspase 8”. The EC50 in data set [4] amounted to 3.1 ± 0.3 µM. The compound further came in with an IC50 at 72 h in data set [5] of 315 ± 35.3 µM. The “Selectivity index (SI)” value in [7] (IC50 MCF‐10A divided by IC50 MCF‐7) is recorded as 8. For the same compound, the “acetylation of histones H3 and H4 (western blot)” value in [8] is “inhibited the deacetylation of H3 and H4”. Also, in [9], the “percentage of apoptotic cells” value is recorded as 12.7%. Also, the “caspase gene expression (mRNA)” value in data set [10] was “increased the expression of caspase 8 gene”.
